Assay [1] concerns PAF-induced aggregation of human platelets. The assay is described as follows: Assay B: Human Platelet Aggregation Inhibition (PAF-induced aggregation in human platelet-rich plasma). The assay is classed as cell-based. Conditions: 37°. How it is done:
Compounds of the invention were evaluated for their ability to inhibit PAF-induced aggregation of human platelets in a human-platelet-rich plasma. Venous blood was collected from donors who fasted for 8 hours and were instructed not to use antiinflammatory drugs for 2 weeks prior to blood draw. Blood was collected into syringes containing 0.1 ml of 3.8% [w/v] citrate and centrifuged in polypropylene tubes at 150xg for 20 minutes at room temperature. The platelet rich plasma [PRP] was collected and let sit for 20 minutes at room temperature. Platelet activating factor [PAF] was diluted in 0.9% NaCl with 0.25% bovine serum albumin. Silicon treated cuvettes with stir bars were placed in the 37° heating block of the platelet aggregometer [Bio/Data Corporation, Platelet Aggregation Profiler, Model PAP-4]. PRP and test compound were added to cuvettes and aggregation monitored for 10-15 seconds at 37° with stirring. PAF was added and aggregation monitored for an additional 3 minutes. Peak aggregation was considered the peak of the first aggregation wave usually 45-60 seconds after PAF addition. Inhibition of aggregation was determined by the following: 1-[(% aggregation in the presence of compound).div.(% maximal aggregation)]. A log/logit transformation was used to determine half maximal inhibitory concentration of a test compound [IC50 ].

The target of assay [2] is T1, PAF receptor (human platelet membrane) (Homo sapiens, UniProt P25105).
T1 construct: The platelets were broken by freezing in a dry ice-ethanol bath; tissue Lifesource, Inc. (Glenview, Ill.); host or cells: human packed platelets (membrane preparation)
Put plainly: Assay A: Human Platelet Receptor Binding (inhibition of specific [^3 H]PAF binding to human platelet membrane preparation). As to conditions: human platelet membranes, 0.75 nM [^3 H]PAF, 30 minutes at 24° C., pH 7.4. How it is done: Compounds of the invention were evaluated for their ability to inhibit specific binding of [^3 H]PAF to human platelet membrane preparation. Human packed platelets were obtained from Lifesource, Inc. (Glenview, Ill.) and washed 3 times with 10 mM Trizma pH 7.0, 2 mM EDTA (dipotassium salt), 150 mM KCL and then once with 10 mM Trizma 7.4, 20 mM CaCL2. The platelets were broken by freezing in a dry ice-ethanol bath, followed by thawing in 24° C. water baths. The preparation was centrifugation (40,000 x g, 20 minutes, 4° C.) and the pellet resuspended in 10 mM Trizma 7.4, 20 mM CaCL2, 5 mg/ml human albumin. Protein concentration in the platelet membrane preparation was determined by the Lowry method [ref]. Aliquots of the membrane preparation were stored at -70° C. Each preparation was characterized for PAF receptor number and dissociation constant (Kd). In binding assays 5 μl of test compound, solubilzed in DMSO, was added to polypropylene tubes along with 0.75 nM [^3 H]PAF and 200 mcl [0.075 nM] of membranes and 95 μl 10 mM Trizma 7.4, 20 mM CaCL2, 5 mg/ml human albumin. Tubes were incubated for 30 minutes at 24° C. The incubation was terminated by adding 4 ml of ice-cold 10 mM Trizma DH 7.4, 20 mM CaCL2 and 20 mg/ml BSA prior to vacuum filtration using Whatman GF/C filters. Filters were prepared and counted for a scintillation counter. All DPM values were corrected for background and isotope decay. Triplicate determinations for single doses were averaged. The amount of non-specific binding was subtracted from all dose averages, giving an amount of specific binding in all cases. The IC50 values for compounds of the invention determined by the Allfit program using percent displacement data. Allfit is a `basic` computer program for simultaneous curve fitting of a family of signoidal dose-response curves using the four parameter logistic equation.

Assay [3] concerns the target T2, [^3 H]PAF receptors on human neutrophil membrane (Homo sapiens, UniProt P25105).
T2 construct: Human neutrophils were isolated from venous blood by dextran sedimentation; from tissue; host or cells: human neutrophils from venous blood (membrane preparation)
Put plainly: Assay C: Human Neutrophil Receptor Binding (inhibition of specific [^3 H]PAF binding to human neutrophil membrane). As to conditions: human neutrophil membranes, 0.9 nM [^3 H]PAF, 30 minutes at 24°, pH 7.4. The procedure: Compounds of the invention were evaluated for their ability to inhibit PAF-induced specific binding of [^3 H]PAF to receptors on human neutrophil membrane. Human neutrophils were isolated from venous blood by dextran sedimentation followed by density gradient centrifugation using Ficoll-Hypaque [J. Biol. Chem., 254:7865-7869, 1979]. Residual red blood cells were removed by hypotonic lysis. Neutrophils were suspended in 50 mM Tris-HCl buffer, pH 7.7, and cells disrupted by sonication for 15 seconds on ice. Unbroken cells and nuclei were removed by slow speed centrifugation [1000xg, 10 min. 4°]. The resultant supernatant was centrifuged at 100,000xg for 60 minutes at 4°. The pellet was suspended in 10 mM Tris-HCl, pH 7.4, with 10 mM MgCl2. Protein content was determined by the method of Lowry [J. Biol. Chem., 193:265-275, 1951]. Membranes were characterized for the concentration of binding sites [Bmax] and affinity for the ligand [Kd] using [^3 H]PAF by Scatchard analysis. Binding assays were conducted by incubating 50 mcg of membranes with 0.9 nM [^3 H]PAF and test compounds in 10 mM Tris-HCl buffer, pH 7.4, containing 0.1% bovine serum albumin. Nonspecific binding was determined by the addition of 1 μM PAF. Binding assay were done for 30 minutes at 24°. The assay was terminated by filtration-through a Whatman GF/C glass filters and radioactivity determined by liquid scintillation counting.

What is called IC50 is the concentration at which inhibition is half-maximal.

T2 sequence (P25105 whole entry): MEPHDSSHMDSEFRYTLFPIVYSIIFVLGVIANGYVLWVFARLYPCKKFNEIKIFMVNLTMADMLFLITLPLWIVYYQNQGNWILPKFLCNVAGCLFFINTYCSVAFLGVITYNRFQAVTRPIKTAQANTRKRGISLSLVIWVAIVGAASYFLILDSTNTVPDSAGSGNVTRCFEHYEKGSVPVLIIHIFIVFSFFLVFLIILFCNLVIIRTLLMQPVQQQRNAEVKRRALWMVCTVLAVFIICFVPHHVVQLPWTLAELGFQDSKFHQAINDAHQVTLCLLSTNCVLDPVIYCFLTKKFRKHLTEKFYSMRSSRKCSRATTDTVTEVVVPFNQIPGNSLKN
T1 sequence (P25105 whole entry): as above

`COc1cc(Cn2cnc3ncccc32)ccc1C(=O)N(C1CCCC1)C1CC(C)CC(C)C1` (stereo not drawn) [Example 8, N-cyclopentyl-N-(3,5-dimethylcyclohexyl)-4-(1H-imidazo[4,5-b]pyridin-1-ylmethyl)-2-methoxybenzamide]: the IC50 in assay [1] was determined as 0.007 µM; in assay [2], 0.035 µM; in assay [3], 0.023 µM.

(Values after patent publication US5359073A, “Substituted-phenyl (N,N'-cycloalkyl/alkyl carboxamide)-1H/3H-imidazo[4,5-b]pyridine compounds as PAF antagonists” (G. D. Searle & Co., priority 1992, dated 1994).)
